Assay: in vitro
Format: cell-based
Conditions: human, HOS cells, 48 h; read-out: CC50, cytotoxic concentration resulting in 50% reduction in the level of ATP
Description: Human embryonic kidney cell culture cell line 293 was acquired from the American Type Culture Collection (ATCC). The human osteosarcoma cell line, HOS, was obtained from Dr. Richard Schwartz (Michigan State University, East Lansing, MI, USA) and grown in Dulbecco’s modified Eagle’s medium (Invitrogen, Carlsbad, CA, USA) supplemented with 5% (v/v) fetal bovine serum, 5% newborn calf serum, and penicillin (50 units/mL) plus streptomycin (50 µg/mL; Quality Biological, Gaithersburg, MD, USA). The transfection vector, pNLNgoMIVR-ΔLUC was made from pNLNgoMIVR-ΔEnv.HSA by removing the HSA reporter gene and replacing it with a luciferase reporter gene between the NotI and XhoI restriction sites. To produce the new IN mutant S230N used in this study, the IN open reading frame was removed from pNLNgoMIVR-ΔENV.LUC by digestion with KpnI and SalI, and the resulting fragment was inserted between the KpnI and SalI sites of pBluescript KS+. Using that construct as the wild-type template, we prepared the following HIV-1 IN mutant S230N using the QuikChange II XL site-directed mutagenesis kit (Agilent Technologies, Santa Clara, CA, USA) protocol. The following sense oligonucleotides were used with matching cognate antisense oligonucleotides (not shown) (Integrated DNA Technologies, Coralville, IA, USA) in the mutagenesis: S230N 5′-[…]-3′. The DNA sequence of the IN mutant S230N construct was verified independently by DNA sequence determination. The mutated IN coding sequences from pBluescript KS+ were then subcloned into pNLNgoMIVR-ΔEnv.LUC (between the KpnI and SalI sites) to produce mutant HIV-1 constructs, which were also checked by DNA sequencing. […]. On the day prior to transfection, 293 cells were plated on 100 mm diameter dishes at a density of 1.5 × 10^6 cells per plate. Next, 293 cells were transfected with 16 µg of pNLNgoMIVR^-ΔLUC and 4 µg of pHCMV-g (obtained from Dr. Jane Burns, University of California, San Diego) using the calcium phosphate method. At approximately 6 h after the calcium phosphate precipitate was added, 293 cells were washed twice with phosphate-buffered saline (PBS) and incubated with fresh media for 48 h. The virus-containing supernatants were then harvested, clarified by low-speed centrifugation, filtrated, and diluted for preparation in antiviral infection assays. On the day prior to the screen, HOS cells were seeded in a 96-well luminescence cell culture plate at a density of 4000 cells in 100 µL per well. On the day of the screen for cellular cytotoxicity determination, cells were treated with compounds from a concentration range of 250 µM to 0.05 µM and then incubated at 37 °C for 48 h. On the day of the screen for antiviral activity infection assays, cells were treated with compounds from a concentration range of 5 µM to 0.0001 µM using 11 serial dilutions and then incubated at 37 °C for 3 h. After compound incorporation and activation in the cell, 100 µL of virus-stock (WT or mutant) diluted to achieve a luciferase signal between 0.2 and 1.5 Relative Luciferase Units (RLUs) was added to each well and further incubated at 37 °C for 48 h. Cellular cytotoxicity was measured by using the ATP Lite Luminescence detection system and monitored by adding 50 µL of cell lysis buffer from the Luminescence ATP detection assay to each well followed by mixing at 700 rpm at room temperature for 5 min using a compact thermomixer. After addition of 50 µL of reconstituted Luminescence ATP detection assay reagent to all wells except for the negative control/background wells, the plates were mixed at 700 rpm at room temperature for 5 min using a compact thermomixer, incubated at room temperature for 20 min to allow time for signal development, and finally, cytotoxicity was determined using the microplate reader. Infectivity was measured by using the Steady-lite plus luminescence reporter gene assay system (PerkinElmer, Waltham, MA, USA). […]

Compound | CC50 [µM]
O=C(NCc1ccc(F)cc1F)c1cn2ccn(CCCCCCO)c(=O)c2c(O)c1=O [Compound 6c, N-(2,4-Difluorobenzyl)-9-hydroxy-2-(6-hydroxyhexyl)-1,8-dioxo-1,8-dihydro-2H-pyrido [1,2-a]pyrazine-7-carboxamide] | > 250
O=C(NCc1ccc(F)cc1F)c1cn2ccn(CCCCO)c(=O)c2c(O)c1=O [Compound 6e, N-(2,4-Difluorobenzyl)-9-hydroxy-2-(4-hydroxybutyl)-1,8-dioxo-1,8-dihydro-2H-pyrido [1,2-a]pyrazine-7-carboxamide] | > 250
O=C(NCc1ccc(F)cc1F)c1cn2ccn(CCCCCO)c(=O)c2c(O)c1=O [Compound 6d, N-(2,4-Difluorobenzyl)-9-hydroxy-2-(5-hydroxypentyl)-1,8-dioxo-1,8-dihydro-2H-pyrido [1,2-a]pyrazine-7-carboxamide] | > 250
O=C(NCc1ccc(F)cc1F)c1cn2c(c(O)c1=O)C(=O)N(CCCCO)CC2 [Compound 7e, N-(2,4-Difluorobenzyl)-9-hydroxy-2-(4-hydroxybutyl)-1,8-dioxo-1,3,4,8-tetrahydro-2H-pyrido [1,2-a]pyrazine-7-carboxamide] | > 250
O=C(NCc1ccc(F)cc1F)c1cn2c(c(O)c1=O)C(=O)N(CCCCCCO)CC2 [Compound 7c, N-(2,4-Difluorobenzyl)-9-hydroxy-2-(6-hydroxyhexyl)-1,8-dioxo-1,3,4,8-tetrahydro-2H-pyrido [1,2-a]pyrazine-7-carboxamide] | > 250
